From patent publication US20240300980A1, “HETEROCYCLIC COMPOUNDS AS KRAS INHIBITOR, AND PREPARATION THEREFOR AND USE THEREOF IN TREATMENT” (SHANGHAI KECHOW PHARMA, INC., priority 2021, published 2024)
Read-outs that look alike come from different tables or passages of the source.

Test system: AGS cells (KRAS^G12D)
Test: Detection of cell proliferation in vitro by MTT/MTS method (cell activity experiment)
Format: cell-based
Conditions: AGS cells, MTT/MTS, 3 days of drug treatment, read-out: AGS IC50
Procedure, shortened: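 After 3-day compound exposure (final DMSO 0.5%), viability of AGS (KRAS G12D) cells, plated 1000/well one day before dosing, was measured at 490 nm following 4 h MTT or MTS incubation. IC50 was fitted from dose–effect curves relative to DMSO-treated wells.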

| IC50 [nM] | SMILES | IC50 (Homo sapiens, AGS, 72 h) [nM] |
| --- | --- | --- |
|  | Oc1cc(-c2ncc3c(N4C[C@H]5CC[C@@H](C4)O5)nc(OC[C@@]45CCCN4C[C@H](F)C5)nc3c2F)c2c(F)c(F)ccc2c1 [Example 16, 4-(4-((1R,5S)-8-oxa-3-azabicyclo[3.2.1]octan-3-yl)-8-fluoro-2-(((2R,7aS)-2-fluorotetrahydro-1H-pyrrolizin-7a(5H)-yl)methoxy)pyrido[4,3-d]pyrimidin-7-yl)-5,6-difluoronaphthalen-2-ol] | 315 |
|  | Oc1cc(-c2ccc3c(N4C[C@H]5CC[C@@H](C4)N5)c(C(F)(F)F)c(OC[C@@]45CCCN4C[C@H](F)C5)nc3c2F)c2c(F)c(F)ccc2c1 [Example 187, 4-(4-((1R,5S)-3,8-diazabicyclo[3.2.1]octan-3-yl)-8-fluoro-2-(((2R,7aS)-2-fluorotetrahydro-1H-pyrrolizin-7a(5H)-yl)methoxy)-3-(trifluoromethyl)quinolin-7-yl)-5,6-difluoronaphthalen-2-ol] | 1410 |
|  | Oc1cc(C#Cc2ccc3c(N4C[C@H]5CC[C@@H](C4)N5)nc(OC[C@@]45CCCN4C[C@H](F)C5)nc3c2F)c2ccccc2c1 [Example 363, 4-((4-((1R,5S)-3,8-diazabicyclo[3.2.1]octan-3-yl)-8-fluoro-2-(((2R,7aS)-2-fluorotetrahydro-1H-pyrrolizin-7a(5H)-yl)methoxy)quinazolin-7-yl)ethynyl)naphthalen-2-ol] | 753 |
|  | C#Cc1cc2c(N3C[C@H]4CC[C@@H](C3)N4)nc(OC[C@@]34CCCN3C[C@H](F)C4)nc2c(F)c1-c1cc(O)cc2c1C(C)CCC2 (stereo partly drawn) [Example 374, 4-(4-((1R,5S)-3,8-diazabicyclo[3.2.1]octan-3-yl)-6-ethynyl-8-fluoro-2-(((2R,7aS)-2-fluorotetrahydro-1H-pyrrolizin-7a(5H)-yl)methoxy)quinazolin-7-yl)-5-methyl-5,6,7,8-tetrahydronaphthalen-2-ol] | 32 |
|  | CCc1c(F)ccc2cc(O)cc(-c3ccc4c(N5C[C@H]6CC[C@@H](C5)N6)nc(OC[C@@]56CCCN5C[C@H](F)C6)nc4c3F)c12 [Example 92, 4-(4-((1R,5S)-3,8-diazabicyclo[3.2.1]octan-3-yl)-8-fluoro-2-(((2R,7aS)-2-fluorotetrahydro-1H-pyrrolizin-7a(5H)-yl)methoxy)quinazolin-7-yl)-5-ethyl-6-fluoronaphthalen-2-ol] | 2.7 |
| > 2500 | C#Cc1c(F)ccc2cc(O)cc(-c3ccc4c(N5C[C@H]6CC[C@@H](C5)[C@@H]6F)nc(OC[C@@]56CCCN5C[C@H](F)C6)nc4c3F)c12 [Example 123, 5-ethynyl-6-fluoro-4-(8-fluoro-4-((1R,5S, 8R)-8-fluoro-3-azabicyclo[3.2.1]octan-3-yl)-2-(((2R,7aS)-2-fluorotetrahydro-1H-pyrrolizin-7a(5H)-yl)methoxy)quinazolin-7-yl)naphthalen-2-ol] |  |
|  | C#Cc1c(F)ccc2cc(O)cc(-c3c(F)c4nc(OC[C@@]56CCCN5C[C@H](F)C6)nc(N5C[C@H]6CC[C@@H](C5)N6)c4c4nccn34)c12 [Example 399, 4-(10-((1R,5S)-3,8-diazabicyclo[3.2.1]octan-3-yl)-6-fluoro-8-(((2R,7aS)-2-fluorotetrahydro-1H-pyrrolizin-7a(5H)-yl)methoxy)imidazo[1′,2′:1,2]pyrido[4,3-d]pyrimidin-5-yl)-5-ethynyl-6-fluoronaphthalen-2-ol] | 65 |
|  | CCc1c(F)ccc2cc(O)cc(-c3ccc4c(N5C[C@H]6CC[C@@H](C5)N6)c(C#N)c(OC[C@@]56CCCN5C[C@H](F)C6)nc4c3)c12 [Example 172, 4-((1R,5S)-3,8-diazabicyclo[3.2.1]octan-3-yl)-7-(8-ethyl-7-fluoro-3-hydroxynaphthalen-1-yl)-2-(((2R,7aS)-2-fluorotetrahydro-1H-pyrrolizin-7a(5H)-yl)methoxy)quinoline-3-carbonitrile] | 1230 |
|  | CC1CCCc2cc(O)cc(C3=C(F)c4nc(OC[C@@]56CCCN5C[C@H](F)C6)nc(N5C[C@H]6CC[C@@H](C5)N6)c4C4=NCCN43)c21 (stereo partly drawn) [Example 407, 4-(10-((1R,5S)-3,8-diazabicyclo[3.2.1]octan-3-yl)-6-fluoro-8-(((2R,7aS)-2-fluorotetrahydro-1H-pyrrolizin-7a(5H)-yl)methoxy)-2,3-dihydroimidazo[1′,2′:1,2]pyrido[4,3-d]pyrimidin-5-yl)-5-methyl-5,6,7,8-tetrahydronaphthalen-2-ol] | 35 |
|  | C#Cc1c(F)ccc2cc(O)cc(-c3ccc4c(N5CCC6(CCCS6)CC5)nc(OC[C@@]56CCCN5C[C@H](F)C6)nc4c3F)c12 [Example 109, 5-ethynyl-6-fluoro-4-(8-fluoro-2-(((2R,7aS)-2-fluorotetrahydro-1H-pyrrolizin-7a(5H)-yl)methoxy)-4-(1-thia-8-azaspiro[4.5]decan-8-yl)quinazolin-7-yl)naphthalen-2-ol] | > 2500 |
|  | CCC1CCc2cc(O)cc(C3=C(F)c4nc(OC[C@@]56CCCN5C[C@H](F)C6)nc(N5C[C@H]6CC[C@@H](C5)N6)c4C4=NCCN43)c21 (stereo partly drawn) [Example 408, 7-(10-((1R,5S)-3,8-diazabicyclo[3.2.1]octan-3-yl)-6-fluoro-8-(((2R,7aS)-2-fluorotetrahydro-1H-pyrrolizin-7a(5H)-yl)methoxy)-2,3-dihydroimidazo[1′,2′:1,2]pyrido[4,3-d]pyrimidin-5-yl)-1-ethyl-2,3-dihydro-1H-inden-5-ol] | 41 |
|  | CCCC1CCc2cc(O)cc(-c3ncc4c(N5C[C@H]6CC[C@@H](C5)N6)nc(OC[C@@]56CCCN5C[C@H](F)C6)nc4c3F)c21 (stereo partly drawn) [Example 242, 7-(4-((1R,5S)-3,8-diazabicyclo[3.2.1]octan-3-yl)-8-fluoro-2-(((2R,7aS)-2-fluorotetrahydro-1H-pyrrolizin-7a(5H)-yl)methoxy)pyrido[4,3-d]pyrimidin-7-yl)-1-propyl-2,3-dihydro-1H-inden-5-ol] | 34 |
|  | C#Cc1c(F)ccc2cc(O)cc(-c3cc4nc(OC[C@@]56CCCN5C[C@H](F)C6)nc(N5C[C@H]6CC[C@@H](C5)N6)c4c4ncn(C)c34)c12 [Example 400, 4-(9-((1R,5S)-3,8-diazabicyclo[3.2.1]octan-3-yl)-7-(((2R,7aS)-2-fluorotetrahydro-1H-pyrrolizin-7a(5H)-yl)methoxy)-3-methyl-3H-imidazo[4,5-f]quinazolin-4-yl)-5-ethynyl-6-fluoronaphthalen-2-ol] | > 2500 |
|  | Oc1cc(-c2ncc3c(C4C[C@H]5CC[C@@H](C4)N5)nc(OC[C@@]45CCCN4C[C@H](F)C5)nc3c2F)c2c(F)c(F)ccc2c1 (stereo partly drawn) [Example 78, 4-(4-((1R,5S)-8-azabicyclo[3.2.1]octan-3-yl)-8-fluoro-2-(((2R,7aS)-2-fluorotetrahydro-1H-pyrrolizin-7a(5H)-yl)methoxy)pyrido[4,3-d]pyrimidin-7-yl)-5,6-difluoronaphthalen-2-ol] | > 2500 |
| > 2500 | C#Cc1c(F)ccc2cc(O)cc(-c3ccc4c(N5C[C@H]6CC[C@@H](C5)[C@@H]6SC)nc(OC[C@@]56CCCN5C[C@H](F)C6)nc4c3F)c12 [Example 129, 5-ethynyl-6-fluoro-4-(8-fluoro-2-(((2R,7aS)-2-fluorotetrahydro-1H-pyrrolizin-7a(5H)-yl)methoxy)-4-((1R, 5S,8R)-8-(methylthio)-3-azabicyclo[3.2.1]octan-3-yl)quinazolin-7-yl)naphthalen-2-ol] |  |
